Tests used:
MG-63 cells = assay: Transmission electron microscopy of autophagic vacuoles; type: cell-based, human; conditions: control MG-63 cells; cisplatin 20 μM, 24 hr
Description: FIG. 3. GFRα1-induced autophagy enhances the chemoresistance of osteosarcoma cells induced by cisplatin. (a) Control and GFRα1-deficient MG-63 cells were transiently transfected with a mRFP-GFP tandem fluorescent-tagged LC3 (mRFP-GFP-LC3) vector and then treated with cisplatin (20μM) for 24 hr. Left, representative images of RFP-LC3 and GFP-LC3 puncta. Scale bar, 20 μm. Right, quantitative analysis of the number of yellow puncta and the number of RFP-LC3 puncta in the combined images. The values are represented as a mean±s.d.m. (n=3). ** denotes p<0.05 by t-test. (b) Control and GFRα1-deficient MG-63 cells were treated with cisplatin (20 μM) for 24 hr and then stained with acridine orange. […] Bottom, quantitative analysis of the number of AVOs. […] (c) Control and GFRα1-deficient MG-63 cells were treated with cisplatin (20 μM) for 24 hr and then analyzed by TEM. Top, representative images of autophagic vacuoles (yellow arrows) detected after cisplatin treatment in control MG-63 cells. […] Bottom, quantitative analysis of the number of autophagic vacuoles. […] (e) Quantitative analysis of the number of yellow puncta and the number of RFP-LC3 puncta in control and GFRα1-overexpressing MG-63 cells. […] Bottom, quantitative analysis of the number of AVOs. […] (h) Control and GFRα1-overexpressing MG-63 cells were treated with cisplatin (20 μM) for 24 hr and then analyzed by TEM. […]

[1] = tested on: APE1 expression in osteosarcoma cells; assay: Immunoblot of APE1 expression after cisplatin; type: cell-based, human; conditions: different concentrations of cisplatin, 24 h
Description: FIG. 10. GFRα1-mediated chemoresistance of osteosarcoma cells is independent of APE and RET signaling. (a) Immunoblot analysis of MG-63 cell lysates with antibodies specific for APE, RET and β-actin. MG-63 and U-2 OS cells were treated with different concentrations of cisplatin for 24 h. The cell lysates of GDNF-treated MIA PaCa-2 were used as positive controls for APE and RET expression.
Immunoblotting. Cells were washed with PBS and lysed in RIPA Buffer (Pierce, Rockford, Ill.). The protein content was determined using a dye-binding microassay (Bio-Rad, Hercules, Calif.), and 10-50 μg protein per lane was electrophoresed on 4-12% SDS polyacrylamide gels. Proteins were blotted onto Hybond ECL membranes (Amersham Pharmacia Biotech, Piscataway, N.J.). Two protein ladders were used for molecular weight determination (GenDEPOT, Barker, Tex.). The blotted proteins were detected using an enhanced chemiluminescence detection system (iNtRON, Seoul, Korea). Data were quantified and analyzed with Image-J software.

N.N.[Cl][Pt][Cl] [cisplatin, Cis-Diamineplatinum(II) dichloride]
number of autophagic vacuoles per cell (MG-63 cells): markedly increased
level of APE1 expression [1]: not affected
